According to ChEMBL document CHEMBL4715722, “Discovery and preliminary structure-activity relationship studies on tecomaquinone I and tectol as novel farnesyltransferase and plasmodial inhibitors” (Bioorg Med Chem, 2016):

Legend:
[1] = Inhibition of bovine brain FTase using 3H-farnesyl diphosphate as substrate incubated for 30 mins by beta-plate counting method; design: species or system Bos taurus
[2] = Cytotoxicity against human tumor cell line; type: cell-based
[3] = Inhibition of Trypanosoma brucei FTase
[4] = test system: Plasmodium falciparum; test: Antiplasmodial activity against chloroquine-resistant Plasmodium falciparum FcB1 infected in erythrocyte incubated for 48 hrs by [3H]-hypoxanthine incorporation assay; type: functional, organism-based
[5] = Inhibition of partially purified human FTase using dan-syl-GCVLS peptide as substrate measured for 15 mins by fluorescence based assay
[6] = Inhibition of recombinant human FTase

| IC50 [1] | SMILES | Activity [2] | IC50 ([3]; read-out: IC50) | IC50 [4] | IC50 [5] | IC50 [3] | IC50 [6] |
| --- | --- | --- | --- | --- | --- | --- | --- |
| 150 nM | CC(=O)OC(CCCC12OC(C(=O)O)C(O)(C(=O)O)C(C(=O)O)(O1)[C@H](OC(=O)CC/C=C/C(C)CCCc1ccccc1)[C@H]2O)C(C)Cc1ccccc1 (stereo partly specified) | – | – | – | – | – | – |
| – | CC(C)=CCC/C(C)=C/CCc1ccc2c(c1)C(=O)c1ccccc1C2=O | Non-Toxic | 1700 nM | > 28 µM | 1400 nM | – | – |
| – | CC(C)=CCCC1(C)C=Cc2c(-c3c4c(c5ccccc5c3O)OC(C)(CCC=C(C)C)C=C4)c(O)c3ccccc3c2O1 (stereo unspecified) | Non-Toxic | 6100 nM | 10.6 µM | 4400 nM | – | – |
| 100 nM | CCCCCCCCCC(=O)O[C@@H]1[C@@H](O)C2(CCCC(OC(C)=O)C(C)C/C=C/c3ccccc3)OC(C(=O)O)C(O)(C(=O)O)C1(C(=O)O)O2 (stereo partly specified) | – | – | – | – | – | – |
| – | CC(C)=CCC/C(C)=C/C1Oc2c(c3c(c4ccccc24)OC(C)(CCC=C(C)C)C=C3)C2=C1C(=O)c1ccccc1C2=O (stereo unspecified) | Non-Toxic | 2700 nM | > 17 µM | 1100 nM | – | – |
| – | CC(C)=CCC/C(C)=C/CCC1(C)C=Cc2c3c(c4ccccc4c2O1)OC(C)(CC/C=C(\C)CCC=C(C)C)C=C3 (stereo unspecified) | Non-Toxic | 2600 nM | > 18 µM | 1700 nM | – | – |
| – | CC(C)=CCCC1(C)C=Cc2c3c(c4ccccc4c2O1)OC(C)(CCC=C(C)C)C=C3 (stereo unspecified) | Non-Toxic | 7900 nM | > 23 µM | 4400 nM | – | – |
| – | CC(C)=CCC/C(C)=C/CCC1(C)C=Cc2c(-c3c4c(c5ccccc5c3O)OC(C)(CC/C=C(\C)CCC=C(C)C)C=C4)c(O)c3ccccc3c2O1 (stereo unspecified) | Non-Toxic | 8700 nM | 7.05 µM | 1800 nM | – | – |
| – | CC(C)=CCC/C(C)=C/CC/C(C)=C/C1Oc2c(c3c(c4ccccc24)OC(C)(CC/C=C(\C)CCC=C(C)C)C=C3)C2=C1C(=O)c1ccccc1C2=O (stereo unspecified) | Non-Toxic | – | > 14 µM | 9980 nM | Not Active | – |
| – | CCC(CC(C)C(=O)O)C(=O)CC/C(C)=C/C(C)C/C(C)=C/C(C)C(O)C(C)CCC(CCCC/C=C/C(C)CCC(C)OC(=O)CC(CC(=O)O)C(=O)O)OC(=O)CC(CC(=O)O)C(=O)O (stereo unspecified) | – | – | – | – | – | 50 nM |
| 100 nM | CCCCCCCC(=O)O[C@@H]1[C@@H](O)C2(CCCC(OC(C)=O)C(C)C/C=C/c3ccccc3)OC(C(=O)O)C(O)(C(=O)O)C1(C(=O)O)O2 (stereo partly specified) | – | – | – | – | – | – |
| – | CC(C)=CCCc1ccc2c(c1)C(=O)c1ccccc1C2=O | Non-Toxic | 1400 nM | > 34 µM | 1500 nM | – | – |
| – | O=C(O)C/C(C(=O)O)=C(/CCCCCCCCCCCCCCCCOS(=O)(=O)O)C(=O)O | – | – | – | – | – | 14 nM |
| – | CCC(CC(C)C(=O)O)C(=O)CC/C1=C/C(C)C/C(C)=C/C(C)C(O)C(C)CCC(CCCC/C=C/C(C)CCC(C)OC(=O)CC(CC(=O)O)C(=O)O)OC(=O)CC(C(=O)O)CC(=O)OC1 (stereo unspecified) [ACTINOPLANIC ACID A] | – | – | – | – | – | 230 nM |
| – | CC(C)=CC1Oc2c(c3c(c4ccccc24)OC(C)(C)C=C3)C2=C1C(=O)c1ccccc1C2=O (stereo unspecified) [TECOMAQUINONE] | Non-Toxic | 112 nM | > 22 µM | 65 nM | – | – |
| – | CC1(C)C=Cc2c(-c3c4c(c5ccccc5c3O)OC(C)(C)C=C4)c(O)c3ccccc3c2O1 [tectol] | Non-Toxic | 1730 nM | 3.44 µM | 2090 nM | – | – |
